Test results as given in article PMC4142842, “Synthesis of isoprenoid bisphosphonate ethers through C–P bond formations: Potential inhibitors of geranylgeranyl diphosphate synthase” (Beilstein Journal of Organic Chemistry, 2014).
Read-outs that look alike come from different tables or passages of the source.

Legend:
[1] = molecular target: T1, geranylgeranyl diphosphate synthase (GGDPS) (Homo sapiens, UniProt O95749); experiment: GGDPS enzyme assay (14C-IPP incorporation, FPP substrate); assay type: biochemical; details: for activity against GGDPS (in words) / IC50: enzyme assay; for IC50: 10 µM FPP, 10 min preincubation
T1 construct: gift of Dr. James E. Dunford (not a commercial vendor)
T1 sequence (O95749 1-300): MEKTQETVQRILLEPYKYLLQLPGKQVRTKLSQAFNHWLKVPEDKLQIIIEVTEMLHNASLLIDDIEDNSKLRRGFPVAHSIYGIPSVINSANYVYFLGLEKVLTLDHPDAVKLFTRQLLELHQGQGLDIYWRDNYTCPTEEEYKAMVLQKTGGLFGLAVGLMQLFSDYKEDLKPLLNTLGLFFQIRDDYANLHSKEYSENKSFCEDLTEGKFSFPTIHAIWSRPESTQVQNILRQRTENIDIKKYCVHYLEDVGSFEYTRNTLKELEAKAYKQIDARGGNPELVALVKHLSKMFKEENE

[2] = molecular target: T2, farnesyl diphosphate synthase (FDPS) (Homo sapiens, UniProt P14324); experiment: FDPS enzyme assay (14C-IPP incorporation, GPP substrate); assay type: biochemical; details: for IC50: 10 µM GPP, 10 min preincubation
T2 construct: gift of Dr. James E. Dunford (not a commercial vendor)
T2 sequence (P14324 1-419): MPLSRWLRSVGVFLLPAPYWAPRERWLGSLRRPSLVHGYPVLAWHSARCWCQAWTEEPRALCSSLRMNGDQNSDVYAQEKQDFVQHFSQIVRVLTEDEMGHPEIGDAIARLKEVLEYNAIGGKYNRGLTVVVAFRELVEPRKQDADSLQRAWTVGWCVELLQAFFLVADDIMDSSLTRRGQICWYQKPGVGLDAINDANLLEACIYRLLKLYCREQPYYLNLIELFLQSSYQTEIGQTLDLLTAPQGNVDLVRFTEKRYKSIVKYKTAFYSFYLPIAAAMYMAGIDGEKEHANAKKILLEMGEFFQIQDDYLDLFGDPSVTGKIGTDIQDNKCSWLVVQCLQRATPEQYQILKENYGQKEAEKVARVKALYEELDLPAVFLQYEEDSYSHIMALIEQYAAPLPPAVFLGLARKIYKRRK

[3] = molecular target: T2, farnesyl diphosphate synthase (FDPS); design: method as in PMID 17208200; details: earlier enzyme assays; cited from earlier work
K562 cells = system: K562 cells; design: method as in PMID 16517172; details: micromolar DGBP; cited from earlier work
[4] = molecular target: T1, geranylgeranyl diphosphate synthase (GGDPS); details: previously reported limited activity; cited from earlier work

activity against FDPS (in words) [2] | IC50 [1] [nM] | IC50 [2] [nM] | Compound | other results
little or no activity | – | – | CC(C)=CCOC(P(=O)(O)O)P(=O)(O)O [Compound 14] | activity against GGDPS (in words) [1]: little or no activity
– | 238 | > 10000 | CC(C)=CCC/C(C)=C/COC(P(=O)(O)O)P(=O)(O)O [Compound 11] | –
no activity | 82 | > 10000 | CC(C)=CCC/C(C)=C/CC(OCC[C@@H](C)CCC=C(C)C)(P(=O)([O-])[O-])P(=O)([O-])[O-].[Na+].[Na+].[Na+].[Na+] [Compound 24] | fold more potent than the DGBP control (5), GGDPS ([1]; ratio of GGDPS IC50 values): ~ 2.6 fold

Continued, compound first:

Compound | activity against FDPS (in words) [2] | IC50 [1] [nM] | IC50 [2] [nM] | other results
CC(C)=CCC/C(C)=C/CC(OCC=C(C)C)(P(=O)(O)O)P(=O)(O)O [Compound 16] | – | 684 | 830 | –
CC(C)=CCC/C(C)=C/COC(C/C=C(\C)CCC=C(C)C)(P(=O)(O)O)P(=O)(O)O [Compound 6] | – | 408 | > 10000 | –
CC(C)=CCOC(CC=C(C)C)(P(=O)(O)O)P(=O)(O)O [Compound 18] | little or no activity | 4750 | 5260 | activity against GGDPS (in words) [1]: little or no activity
CC(C)=CCC/C(C)=C/CC(C/C=C(\C)CCC=C(C)C)(P(=O)(O)O)P(=O)(O)O [Compound 5, digeranyl bisphosphonate] | – | – | > 10000 | IC50 [3]: > 10000 nM; Rap1a geranylgeranylation (Western blot) (K562 cells): only partially modified
CC(C)=CCC/C(C)=C/COC(CC=C(C)C)(P(=O)(O)O)P(=O)(O)O [Compound 20] | – | 274 | > 10000 | –
CC(C)=CCCC(C)=CCC(P(=O)(O)O)P(=O)(O)O [geranyl bisphosphonate] | – | – | – | activity previously reported (GGDPS inhibition) [4]: 10 µM
